Counter-ions that a name gives are not always drawn.
Key:
rats [1] = assay: Hypotensive effect in anesthetized rats (mean blood pressure); format: in vivo, male Sprague-Dawley rat; conditions: rat, 10 mg/kg, i.d. N = 2; from value before administration (100%)
Procedure: Test Example 2. The Hypotensive Effect in Rats
After a male Spraque-Dawley rat (two […]/group) anesthetized with urethane was fixed in the supine position, a cannula was inserted into trachea and the rat was artificially ventilated under the conditions of a tidal volume of […] and 60 breathes/min. The carotid artery and the duodenum were cannulated for measuring blood pressure and administering a drug, respectively. The drug was dissolved in distilled water and administered duodenally using the above cannula. Mean blood pressure (mBP) until […] after the drug-administration was measured and the maximum lowering rate (%) from the value before the drug-administration (100%) was determined. No change of mBP was observed during 30 minutes in case of administrating distilled water.

[2] = target: T1, PDE V (cGMP-specific PDE) (Canis lupus familiaris, UniProt O77746); assay: Inhibitory activity on PDE V derived from canine tracheal smooth muscle; format: biochemical; conditions: Compound conc.: 1 nM; substrate 1.0 μM [3H]cGMP; read-out: PDE V inhibitory activity, Inhibition rate (%)
T1 construct: purified from canine tracheal smooth muscle; from tissue; host or cells: canine tracheal smooth muscle
Procedure: Hereinafter, PDE inhibitory activity and pharmacological activity of the representative Compounds (I) are described in more detail by Test Examples. Test Example 1. The inhibitory activity on PDE derived from canine tracheal smooth muscle
(1) Purification of an Enzyme
According to the method of Torphy et al. [Mol. Pharmacol., 37, 206 (1990)], PDE V (cGMP-specific PDE) was purified from canine tracheal smooth muscle.
(2) Measurement of PDE Activity
The activity was measured based on the method of Kincaid et-al. [J. D. Corbin et al., Methods Enzymol., 159, 457(1988), Academic Press, New York]. The measurement was carried out using, as a substrate, 1.0 μM [^3 H]cGMP, and the reaction was carried out in a buffer having the following composition:
50 mM N,N-bis(2-hydroxyethyl)-2-aminoethanesulfonic acid (pH 7.2), 1 mM MgCl2, 0.1 mg/ml soybean trypsin inhibitor.
The reaction was started by addition of the enzyme and stopped by addition of hydrochloric acid after reacting for 10 to 30 minutes at 30° C. Thereafter, sodium hydroxide was added for neutralization and 5'-GMP was converted into guanosine using 5'-nucleotidase. The reaction solution was subjected to DEAE-Sephadex A-25 column. [^3 H]Guano sine was eluted with distilled water and the radioactivity was measured with a liquid scintillation counter. The inhibitor was dissolved in 1.7% DMSO.

rats [3] = assay: Effect on developed cavernous pressure and duration of tumescence in rats; format: in vivo, male Sprague-Dawley rat; conditions: 20 μg/rat, injected into the cavernous body; for DCP (developed cavernous pressure), Pre / DT (duration of tumescence), Pre: before administration; for DCP (developed cavernous pressure), 6-min / DT (duration of tumescence), 6-min: six minutes after administration
Procedure: Test Example 3. Effect of Developed Cavernous Pressure and Duration of Tumescence in Rats
A male Sprague-Dawley rat was anesthetized with urethane (1.3 g/kg) subcutaneously injected into the back of the neck. The perineal incision was performed and the right crus of the penis was exposed. For measurement of cavernous pressure, a needle (25G) attached to a polyethylene tube (PE50) filled with a heparin solution was inserted into the right crus. The polyethylene tube was connected to a pressure transducer (MPC-500, Millar Instruments) and cavernous pressure was amplified with an amplifier (AP-621G, Nihon Kohden) and then recorded on a pen recorder (LR4220, Yokokawa Denki). The abdomen was incised and cavernous nerves on the prostate was exposed. The nerve was placed on a bipolar tungsten electrode and stimulated by current pulses(frequency; 20 Hz, duration; 0.2 ms, strength; 3 to 5 V) for 50 seconds with an electric stimulator (SEN-3201, Nihon Koden) to induce increases in cavernous pressure. The test compounds were dissolved in distilled water (DW) or 0.01 N hydrochloric acid at a concentration of 1 mg/ml and injected into the cavernous body(0.02 ml/rat) with a needle (27G). Before(Pre) and six minutes after administration (6-min). of distilled water (DW) or the test compounds, the nerve was stimulated, and developed cavernous pressure (DCP) and the duration of tumescence (DT) were measured. DT was defined as the time from the start of stimulation to 50% of the peak cavernous pressure after the end of stimulation.

CCn1c(=O)[nH]c2cc3c(NCc4ccc(NC)cc4)ncnc3cc21 [Compound 2, 3-Ethyl-8-(4-methylaminobenzylamino)-2,3-dihydro-1H-imidazo[4,5-g]quinazoline-2-one 2 hydrochloride]
Hypotensive activity, Maximum lowering rate (%) of mean blood pressure (rats [1]): 19.7%

CCn1c(=O)[nH]c2cc3c(NCc4ccc(NCc5ccccc5)cc4)ncnc3cc21 [Compound 3, 8-(4-Benzylaminobenzylamino)-3-ethyl-2,3-dihydro-1H-imidazo[4,5-g]quinazoline-2-one 2 hydrochloride]
inhibition at 0.001 µM [2]: 62%

CCNc1ccc(CNc2ncnc3cc4c(cc23)[nH]c(=O)n4CC)cc1 [Compound 6, 3-Ethyl-8-(4-ethylaminobenzylamino)-2,3-dihydro-1H-imidazo[4,5-g]quinazoline-2-one 2 hydrochloride]
inhibition at 0.001 µM [2]: 37%

CCn1c(=O)[nH]c2cc3c(NCc4ccccc4N4CCSCC4)ncnc3cc21 [Compound 15, 3-Ethyl-8-(2-thiomorpholinobenzylamino)-2,3-dihydro-1H-imidazo[4,5-g]quinazoline-2-one 1 hydrochloride]
Hypotensive activity, Maximum lowering rate (%) of mean blood pressure (rats [1]): 19.8%

CCn1c(=S)[nH]c2cc3c(NCc4ccccc4NC)ncnc3cc21 [Compound 22, 3-Ethyl-8-(2-methylaminobenzylamino)-2,3-dihydro-1H-imidazo[4,5-g]quinazoline-2-thione 2 hydrochloride]
inhibition at 0.001 µM [2]: 91%

CCn1c(=S)[nH]c2cc3c(NCc4ccc(NCc5ccccc5)cc4)ncnc3cc21 [Compound 24, 8-(4-Benzylaminobenzylamino)-3-ethyl-2,3-dihydro-1H-imidazo[4,5-g]quinazoline-2-thione 2 hydrochloride]
inhibition at 0.001 µM [2]: 88%

CCCNc1ccc(CNc2ncnc3cc4c(cc23)[nH]c(=S)n4CC)cc1 [Compound 26, 3-Ethyl-8-(4-propylaminobenzylamino)-2,3-dihydro-1H-imidazo[4,5-g]quinazoline-2-thione 2 hydrochloride]
DCP (developed cavernous pressure), Pre (rats [3]): 21.5 mmHg
DT (duration of tumescence), Pre (rats [3]): 3.8 s
DCP (developed cavernous pressure), 6-min (rats [3]): 27.7 mmHg
DT (duration of tumescence), 6-min (rats [3]): 22.9 s

CCNc1ccc(CNc2ncnc3cc4c(cc23)[nH]c(=S)n4CC)cc1 [Compound 27, 3-Ethyl-8-(4-ethylaminobenzylamino)-2,3-dihydro-1H-imidazo[4,5-g]quinazoline-2-thione 2 hydrochloride]
inhibition at 0.001 µM [2]: 97%

CCn1c(=S)[nH]c2cc3c(NCc4ccccc4NCCO)ncnc3cc21 [Compound 30, 3-Ethyl-8-[2-(2-hydroxyethylamino)benzylamino]-2,3-dihydro-1H-imidazo[4,5-g]quinazoline-2-thione 2 hydrochloride]
inhibition at 0.001 µM [2]: 97%

CCn1c(=S)[nH]c2cc3c(NCc4ccccc4N4CCOCC4)ncnc3cc21 [Compound 33, 3-Ethyl-8-(2-morpholinobenzylamino)-2,3-dihydro-1H-imidazo[4,5-g]quinazoline-2-thione 1 hydrochloride]
inhibition at 0.001 µM [2]: 98%

CCn1c(=S)[nH]c2cc3c(NCc4ccccc4N4CCC(CO)CC4)ncnc3cc21 [Compound 34, 3-Ethyl-8-[2-(4-hydroxymethylpiperidino)benzylamino]-2,3-dihydro-1H-imidazo[4,5-g]quinazoline-2-thione 2 hydrochloride]
inhibition at 0.001 µM [2]: 95%
DCP (developed cavernous pressure), Pre (rats [3]): 23.9 ± 2.0 mmHg
DT (duration of tumescence), Pre (rats [3]): 3.3 ± 0.9 s
DCP (developed cavernous pressure), 6-min (rats [3]): 31.1 ± 4.7 mmHg
DT (duration of tumescence), 6-min (rats [3]): 16.9 ± 2.4 s

CCn1c(=S)[nH]c2cc3c(NCc4ccccc4N4CCCCC4)ncnc3cc21 [Compound 35, 3-Ethyl-8-(2-piperidinobenzylamino)-2,3-dihydro-1H-imidazo[4,5-g]quinazoline-2-thione 2 hydrochloride]
inhibition at 0.001 µM [2]: 95%
DCP (developed cavernous pressure), Pre (rats [3]): 22.6 mmHg
DT (duration of tumescence), Pre (rats [3]): 1.6 s
DCP (developed cavernous pressure), 6-min (rats [3]): 21.2 mmHg
DT (duration of tumescence), 6-min (rats [3]): 8.1 s

CCn1c(=S)[nH]c2cc3c(NCc4ccccc4N4CCN(C)CC4)ncnc3cc21 [Compound 36, 3-Ethyl-8-[2-(4-methyl-1-piperazinyl)benzylamino]-2,3-dihydro-1H-imidazo[4,5-g]quinazoline-2-thione 3 hydrochloride]
Hypotensive activity, Maximum lowering rate (%) of mean blood pressure (rats [1]): 17.6%

CCn1c(=S)[nH]c2cc3c(NCc4cccc(N5CCN(C)CC5)c4)ncnc3cc21 [Compound 40, 3-Ethyl-8-[3-(4-methyl-1-piperazinyl)benzylamino]-2,3-dihydro-1H-imidazo[4,5-g]quinazoline-2-thione 3 hydrochloride]
Hypotensive activity, Maximum lowering rate (%) of mean blood pressure (rats [1]): 16.1%

Source: US6127541A, “Imidazoquinazoline derivatives” (Kyowa Hakko Kogyo Co., Ltd., priority 1996, dated 2000)
